Experimental data: patent US12102635B2, “Methods of using protein palmitoylations inhibitors” (priority 2021, dated 2024)
Values joined by “and” are separate entries in the source; they are usually repeats but may differ in a detail not shown here. Identical values can stand only once.

Assays:
SARS-CoV-2 spike protein [1] = type: cell-based
[2] = system: SARS-COV-2 spike pseudotyped lentivirus; type: cell-based
SARS-CoV-2 spike protein [3] = type: cell-based, human
SARS-CoV-2-mNG = type: cell-based
SARS-CoV-2 = type: cell-based
HEK293T cells = conditions: for observable toxicity: XTT, concentrations below 3 μM, relative to DMSO
Caco-2 cells = conditions: XTT, concentrations below 3 μM, relative to DMSO
yeast homolog of DHHC9 = molecular target: T1, yeast homolog of DHHC9 (Saccharomyces cerevisiae, UniProt Q06551); conditions: previous screen; cited from earlier work
T1 sequence (Q06551 1-359): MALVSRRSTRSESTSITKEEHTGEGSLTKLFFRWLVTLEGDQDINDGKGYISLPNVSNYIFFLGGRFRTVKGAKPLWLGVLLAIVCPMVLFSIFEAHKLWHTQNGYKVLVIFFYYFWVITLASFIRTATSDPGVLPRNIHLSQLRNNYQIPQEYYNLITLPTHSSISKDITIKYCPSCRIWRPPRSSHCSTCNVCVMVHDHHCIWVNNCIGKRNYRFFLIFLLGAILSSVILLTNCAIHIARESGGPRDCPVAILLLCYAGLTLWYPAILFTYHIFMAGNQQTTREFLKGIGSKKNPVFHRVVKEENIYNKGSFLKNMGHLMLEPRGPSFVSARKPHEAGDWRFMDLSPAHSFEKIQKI
T1 sequence (P41912 1-237 partner): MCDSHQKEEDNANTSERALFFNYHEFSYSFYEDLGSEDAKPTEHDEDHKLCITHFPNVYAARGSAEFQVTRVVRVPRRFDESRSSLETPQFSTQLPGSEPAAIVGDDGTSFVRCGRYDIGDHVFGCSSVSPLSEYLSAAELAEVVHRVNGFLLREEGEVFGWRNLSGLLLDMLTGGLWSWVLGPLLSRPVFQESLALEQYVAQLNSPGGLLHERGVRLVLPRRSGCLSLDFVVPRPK

GAPDH = type: cell-based, human; conditions: 10 μM, HEK293T cells
[4] = system: SARS-COV-2 spike pseudotyped lentivirus; type: cell-based; remark: listed apart in the source
[5] = system: SARS-COV-2 spike pseudotyped lentivirus; type: cell-based; remark: listed apart in the source

SMILES	reduction of palmitoylation of the spike protein (SARS-CoV-2 spike protein [1])	quantity of pseudovirus released from the producer cells (egress) [2]	reduction in syncytia formation (SARS-CoV-2 spike protein [3])	mNeonGreen signal (SARS-CoV-2-mNG)	reduction viral infection of Vero-E6 cells (SARS-CoV-2)	maximal non-toxic concentration (HEK293T cells)	observable toxicity (HEK293T cells)	observable toxicity (Caco-2 cells)	inhibition of palmitoylation (yeast homolog of DHHC9)	spike palmitoylation (SARS-CoV-2 spike protein [1])	GAPDH palmitoylation (GAPDH)	pseudovirus infection (luciferase) [4]	luciferase signal (pseudovirus infection) [5]
CC(C)Cc1ccc(C(C)CN2CCN(CCCC[C@H]3CNCCN3CCc3cc(C(F)(F)F)cc(C(F)(F)F)c3)C[C@@H]2Cc2ccc(O)cc2)cc1 (stereo partly drawn) [Compound 3, 4-(((2S)-4-(4-((S)-1-(3,5-bis(trifluoromethyl)phenethyl)piperazin-2-yl)butyl)-1-(2-(4-isobutylphenyl)propyl)piperazin-2-yl)methyl) phenol]	44%	do not reduce the quantity of pseudovirus released	45% and 50%	dose dependent reduction in mNeonGreen signal	76%	3 µM	no observable toxicity	no observable toxicity	low micromolar concentrations				
CCCCCCCCCCCCCCC(Br)C(=O)O (centres unmarked) [Compound 2-BP, 2-bromopalmitic acid, reference compound]				dose dependent reduction in mNeonGreen signal						inhibited spike palmitoylation	reduced	significant reduction in pseudovirus infection	reduced luciferase signal significantly
CC(C)Cc1ccc(C(C)CN2CCNC[C@@H]2CCCCN2CCN(CC(C)c3ccc(CC(C)C)cc3)[C@@H](Cc3ccc(O)cc3)C2)cc1 (stereo partly drawn) [Compound 2, 4-(((2S)-1-(2-(4-isobutylphenyl)propyl)-4-(4-((2S)-1-(2-(4-isobutylphenyl)propyl)piperazin-2-yl)butyl)piperazin-2-yl)methyl) phenol]	37%	do not reduce the quantity of pseudovirus released	58% and 60%	dose dependent reduction in mNeonGreen signal	60%	3 µM	no observable toxicity	no observable toxicity	low micromolar concentrations				
